Source: patent US7972800B2, “Screening method for binding property or signal transduction alterations” (Takeda Pharmaceutical Company Limited, priority 2003, dated 2011)

Legend:
[1] = test system: CHO cells where the receptor was not expressed or GPCR other than GPR39 was expressed; assay type: cell-based; conditions: FLIPR; control cells
[2] = molecular target: T1, human GPR39 (Homo sapiens, UniProt O43194); assay type: cell-based; parameters: expressed in transfected cells; host or cells: CHO cells, vector pAKKO-111H; conditions: FLIPR, Fluo-3AM; metal salt added, 10-300 μM (FIGS. 1-4)
T1 sequence (O43194 1-453): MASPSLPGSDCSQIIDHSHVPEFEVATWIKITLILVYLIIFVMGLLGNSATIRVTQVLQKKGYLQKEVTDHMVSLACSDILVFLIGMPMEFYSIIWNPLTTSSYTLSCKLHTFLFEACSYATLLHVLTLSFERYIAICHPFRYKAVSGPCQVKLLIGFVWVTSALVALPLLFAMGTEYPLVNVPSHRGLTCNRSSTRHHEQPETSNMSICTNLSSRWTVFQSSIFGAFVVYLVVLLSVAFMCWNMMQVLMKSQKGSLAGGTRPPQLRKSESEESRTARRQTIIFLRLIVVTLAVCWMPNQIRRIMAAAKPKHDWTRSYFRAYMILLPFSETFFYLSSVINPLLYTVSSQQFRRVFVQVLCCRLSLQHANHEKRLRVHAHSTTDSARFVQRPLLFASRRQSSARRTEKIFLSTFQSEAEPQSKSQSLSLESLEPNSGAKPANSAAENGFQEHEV
Experimental: The human GPR39-GFP expression vector-transfected CHO cell line produced in EXAMPLE 1 (CHO/hGPR39-GFP) was diluted in 3×10^4 cells/100 μl. The dilution was dispensed onto a Black walled 96-well plate (Costar) in 100 μl each per well, followed by incubation overnight in a CO2 incubator. Changes in intracellular calcium levels were determined by the following method using FLIPR (Molecular Device). In 21 μl of DMSO (DOJIN), 50 μg of Fluo-3AM (DOJIN) was dissolved and an equal volume of 20% Pluronic acid (Molecular Probes) was added to the solution. After mixing them, the resulting mixture was added to 10.6 ml of assay buffer [prepared by adding 20 ml of 1M HEPES (pH 7.4) (DOJIN) to HBSS (Invitrogen Corp.) and further adding to the solution 10 ml of a solution mixture, which mixture was prepared by dissolving 710 mg of Probenecid (Sigma) in 5 ml of 1N NaOH and then adding thereto 5 ml of the HBSS/HEPES solution above] supplemented with 105 μl of fetal calf serum to prepare a fluorescent dye solution. The medium in the cell plate was removed. Immediately thereafter, the fluorescent dye solution was dispensed in 100 μl each/well and the cells were incubated in a CO2 incubator for an hour so that the fluorescent dye was taken up into the cells. The cells after the incubation were washed with the assay buffer described above and set on FLIPR. Compounds of metal elements to be added to the cells were diluted to the respective concentration with the assay buffer. The dilutions were dispensed onto plates for ligands and set on FLIPR. Following the pre-treatment above, changes in intracellular calcium levels after addition of metal elements were determined by FLIPR to study agonist activities.

[3] = test system: rat GPR39; assay type: cell-based; conditions: FLIPR, Fluo-3AM (FIG. 9 through FIG. 13)
Experimental: (§1) Using the CHO cell line where rat GPR39 was stably expressed, the agonist activity of metal ions was detected using FLIPR in terms of the intracellular calcium-increasing reaction as an indicator. The CHO cell line used, wherein rat GPR39 was stably expressed, was cultured in HAM's αMEM (Invitrogen Corp.) containing 10% calf fetal serum (Invitrogen Corp.). On the day before the assay was conducted, the human GPR39-expressing CHO cell line was cultured in a culture flask to reach a confluent state. After washing with PBS, the cells were scraped off using trypsin and centrifuged for recovery. The cells were then suspended in medium and the suspension was adjusted to 3×10^5 cells/ml. Then, the suspension was dispensed onto a black walled 96-well plate (Costar) in 100 μl each per well, followed by incubation overnight in a CO2 incubator.
(§2) On the day when the assay was conducted, various test samples were added to the cells and the changes of intracellular calcium levels in this case were determined by FLIPR (Molecular Device). In order to determine the changes in intracellular calcium levels on FLIPR, the cells were pre-treated by the following procedures. First, for the purpose of adding a fluorescent dye Fluo-3AM (DOJIN) to the cells or washing the cells immediately before the FLIPR assay, an assay buffer was prepared. A solution was prepared by adding 20 ml of 1M HEPES (pH 7.4) (DOJIN) to 1000 ml of HBSS (Invitrogen Corp.) (hereinafter HBSS/HEPES solution), to which solution was added 10 ml of a solution mixture obtained by dissolving 710 mg of Probenecid (Sigma) in 5 ml of 1N NaOH and further adding 5 ml of HBSS/HEPES solution thereto. The resulting solution was used as the assay buffer. Next, 50 μg of Fluo-3AM was dissolved in 21 μl of DMSO (DOJIN) and an equal volume of 20% Pluronic acid (Molecular Probes) was added to and mixed with the solution. The mixture was then added to 10.6 ml of the assay buffer supplemented with 105 μl of fetal calf serum to prepare a fluorescent dye solution. The medium for the CHO cells where human GPR39 was stably expressed was removed. Immediately thereafter, the fluorescent dye solution was dispensed in 100 μl each/well and the cells were incubated in a CO2 incubator for an hour so that the fluorescent dye was taken up into the cells. The cells after the incubation was washed with the assay buffer described above and set on FLIPR. A test sample to be added to the CHO cells where rat GPR39 was stably expressed was prepared using the assay buffer and set on FLIPR at the same time. Following the pre-treatment above, the changes in intracellular calcium levels after the addition of each test sample were determined by FLIPR.

[4] = molecular target: T2, mouse GPR39 (Mus musculus, UniProt Q5U431, T447P); assay type: cell-based; conditions: FLIPR, Fluo-3AM (FIG. 14 through FIG. 18)
T2 construct: expressed in transfected cells; host or cells: CHO cells, vector pAKKO-111H
T2 sequence (Q5U431 1-456 T447P): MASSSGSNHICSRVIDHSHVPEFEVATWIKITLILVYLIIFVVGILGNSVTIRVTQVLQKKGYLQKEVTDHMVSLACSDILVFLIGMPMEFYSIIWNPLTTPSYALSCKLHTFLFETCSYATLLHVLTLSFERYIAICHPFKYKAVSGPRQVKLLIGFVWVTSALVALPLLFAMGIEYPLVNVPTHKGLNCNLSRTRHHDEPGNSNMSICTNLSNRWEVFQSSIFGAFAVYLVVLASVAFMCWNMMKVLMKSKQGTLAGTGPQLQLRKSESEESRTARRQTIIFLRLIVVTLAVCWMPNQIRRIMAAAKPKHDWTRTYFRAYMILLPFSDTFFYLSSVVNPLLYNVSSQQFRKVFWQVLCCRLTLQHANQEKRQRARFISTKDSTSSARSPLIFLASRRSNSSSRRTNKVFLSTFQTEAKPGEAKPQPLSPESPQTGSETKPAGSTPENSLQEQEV
Experimental: as §1, §2
Using the CHO cell line where mouse GPR39 was stably expressed, the agonist activity of metal ions was detected on FLIPR in accordance with the procedures described in EXAMPLE 5, in terms of the intracellular calcium-increasing reaction as an indicator.

[5] = test system: bladder (micturition) of conscious rats; assay: Cystometry in conscious rats with intravesical infusion; assay type: in vivo, rat; conditions: female SD rats, protamine sulfate 10 mg/mL in PBS infused into the bladder for an hour
Experimental: Female SD rats of 9-10 weeks old were anaesthetized by intramuscular injection with 0.1 ml/100 g of a solution obtained by mixing ketamine (50 mg/mL) and xylazine (20 mg/mL) in 5:1. The bladder was then exposed via a midline incision and a hole was made with a 20-G needle to insert a polyethylene tube (PE-50), which tube was sutured to the bladder with cotton thread. The polyethylene tube cannulated into the bladder was cut at a length of about 1 cm, which was connected to a silicon tube (No. 00) and exposed to the dorsum through the skin. The animals were housed in individual cages until they were used for the experiments.
One day after the surgery, the animal was anesthetized with halothane and placed in Ballman cages under restricted conditions. After a three-way cock was connected to the tube cannulated into the bladder, a saline infusion tube was connected to a cystometry tube (resistance to infusion). An electronic scale was placed under the Ballman cages and the micturition volume was measured at the same time. When the anesthetic completely worn off, the infusion of saline into the bladder commenced and the bladder pressure and micturition volume were recorded on a personal computer via an A-D converter (MP-100, BIOPAC Systems) and analyzed using a dedicated software (AcqKnowledge, BIOPAC Systems).
Saline was infused into the bladder at the rate of 6 ml/hr and the infusion was continued for 1 or 2 hours until stable micturition was recorded. In order to enhance the permeability of a drug into the bladder, protamine sulfate (10 mg/mL in PBS) was infused into the bladder for an hour (Chuang Y, et. al., 2003, Urology, 63, 664-670). […] Then, saline was reinfused into the bladder and micturition was recorded at least 2 hours until protamine was completely washed off. […] Mean micturition intervals during from about 30 minutes to about 60 minutes after starting the infusion of CuCl2 were calculated to find a ratio to mean micturition intervals for about 30 minutes before the infusion of CuCl2 (% of the pre-value).

## [Cl-].[Cl-].[Zn+2] [zinc chloride]
[1]
  intracellular calcium response in CHO cells without the receptor or with GPCR other than GPR39: no such response was observed
[2]
  intracellular calcium levels of CHO/hGPR39-GFP: dose-dependently increased
[3]
  intracellular calcium levels of CHO/rGPR39: dose-dependently increased
[4]
  intracellular calcium levels of CHO/mGPR39: dose-dependently increased

## protamine sulfate
[5]
  micturition intervals compared to those prior to the infusion: Any substantial change in micturition intervals was noted

## [Cl][Co][Cl] [cobalt chloride]
[3]
  intracellular calcium levels of CHO/rGPR39: dose-dependently increased
[4]
  intracellular calcium levels of CHO/mGPR39: dose-dependently increased

## [Cl][Cd][Cl] [cadmium chloride]
[1]
  intracellular calcium response in CHO cells without the receptor or with GPCR other than GPR39: no such response was observed
[2]
  intracellular calcium levels of CHO/hGPR39-GFP: dose-dependently increased
[3]
  intracellular calcium levels of CHO/rGPR39: dose-dependently increased
[4]
  intracellular calcium levels of CHO/mGPR39: dose-dependently increased
